Test results taken from US11432549B2, “Carbamoyl triazolinone based herbicide combinations and method of use” (Arysta LifeScience Corporation, priority 2009, dated 2022).

Assays:
[1] = tested on: Euphorbia heterophylla (EPHHL); assay: Ex 4 pre-emergence, visual % damage; assay type: in vivo
Method: (§1) DINAMIC® (amicarbazone) in combination of various herbicides listed in Table 4-1 were tested for herbicidal activity.
The herbicidal effect was observed by comparing the extent of Euphorbia heterophylla (EPHHL) treated with the compounds against that occurring in similar non-treated control. Herbicidal effect was visually assessed and recorded at 14, 23, 36, 49, 65 and 77 days after treatment (DAT). Damage by the herbicidal compositions was evaluated with reference to a scale of 0% to 100% in comparison with untreated control. 0% means no damage and 100% means complete destruction of the plants.
The theoretical herbicidal effect index were calculated based on Colby and the values were indicated in bracket ( ) in Table 4-2. Both of the herbicidal mixtures (amicarbazone+Karmex) and (amicarbazone+Sencor) exert a greater herbicidal action than expected according to Colby on the basis of the observed effects of the individual components when used alone. […] The underlined values in the table indicate that the observed weed killing is greater than calculated from the Colby formula and therefore indicates a synergistic weed killing effect or activity.

[2] = tested on: Croton glandulosus (CROTON); assay: Ex 4 pre-emergence, visual % damage; assay type: in vivo; settings: kg/ha or L/ha: Amicarbazone 1.50, Gesapax 5.00, Karmex 5.00, Provence 0.20, Sencor 3.50, alone
Method: as §1
The herbicidal effect was observed by comparing the extent of Croton glandulosus (CROTON) treated with the compounds against that occurring in similar non-treated control. Herbicidal effect was visually assessed and recorded at 14, 23, 36, 49, 65 and 77 days after treatment (DAT). Damage by the herbicidal compositions was evaluated with reference to a scale of 0% to 100% in comparison with untreated control. 0% means no damage and 100% means complete destruction of the plants. […] The theoretical herbicidal effect index were calculated based on Colby and the values were indicated in bracket (2). Some of the observed herbicidal effects were the same as the theoretical hervicidal effects, which indicate additive effects. The underlined values in the table indicate that the observed weed killing is greater than calculated from the Colby formula and therefore indicates a synergistic weed killing effect or activity.

SMILES: CC(C)c1nn(C(=O)NC(C)(C)C)c(=O)n1N [Amicarbazone, 4-amino-5-isopropyl-2-(tert-butyl-aminocarbonyl)-2,4-dihydro-3H-1,2,4-triazol-3-one]
- percentage control ([1]; 14 DAT, kg/ha or L/ha: Amicarbazone 1.00, Gesapax 3.00, Karmex 3.00, Provence 0.15, Sencor 2.00, alone or Amicarbazone + partner): 96%
- percentage control ([1]; 14 DAT, kg/ha or L/ha: Amicarbazone 1.50, Gesapax 5.00, Karmex 5.00, Provence 0.20, Sencor 3.50, alone): 98%
- percentage control ([1]; 23 DAT, kg/ha or L/ha: Amicarbazone 1.00, Gesapax 3.00, Karmex 3.00, Provence 0.15, Sencor 2.00, alone or Amicarbazone + partner): 96%
- percentage control ([1]; 23 DAT, kg/ha or L/ha: Amicarbazone 1.50, Gesapax 5.00, Karmex 5.00, Provence 0.20, Sencor 3.50, alone): 98%
- percentage control ([1]; 36 DAT, kg/ha or L/ha: Amicarbazone 1.00, Gesapax 3.00, Karmex 3.00, Provence 0.15, Sencor 2.00, alone or Amicarbazone + partner): 96%
- percentage control ([1]; 36 DAT, kg/ha or L/ha: Amicarbazone 1.50, Gesapax 5.00, Karmex 5.00, Provence 0.20, Sencor 3.50, alone): 96%
- percentage control ([1]; 49 DAT, kg/ha or L/ha: Amicarbazone 1.00, Gesapax 3.00, Karmex 3.00, Provence 0.15, Sencor 2.00, alone or Amicarbazone + partner): 79%
- percentage control ([1]; 49 DAT, kg/ha or L/ha: Amicarbazone 1.50, Gesapax 5.00, Karmex 5.00, Provence 0.20, Sencor 3.50, alone): 96%
- percentage control ([1]; 65 DAT, kg/ha or L/ha: Amicarbazone 1.00, Gesapax 3.00, Karmex 3.00, Provence 0.15, Sencor 2.00, alone or Amicarbazone + partner): 79%
- percentage control ([1]; 65 DAT, kg/ha or L/ha: Amicarbazone 1.50, Gesapax 5.00, Karmex 5.00, Provence 0.20, Sencor 3.50, alone): 96%
- percentage control ([1]; 77 DAT, kg/ha or L/ha: Amicarbazone 1.00, Gesapax 3.00, Karmex 3.00, Provence 0.15, Sencor 2.00, alone or Amicarbazone + partner): 75%
- percentage control ([1]; 77 DAT, kg/ha or L/ha: Amicarbazone 1.50, Gesapax 5.00, Karmex 5.00, Provence 0.20, Sencor 3.50, alone): 90%
- percentage control ([2]; 14 DAT): 100%
- percentage control ([2]; 23 DAT): 99%
- percentage control ([2]; 36 DAT): 99%
- percentage control ([2]; 49 DAT): 99%
- percentage control ([2]; 65 DAT): 99%
- percentage control ([2]; 77 DAT): 99%
